Measured values published in ChEMBL document CHEMBL1201862, “PubChem BioAssay data set” (2004).
The source made the active and inactive calls.

Experiments:
[1] = tested on: Vero; assay: viability loss in Vero cells – cell-based, plate reader, cherry-pick samples, cytotoxicity control, dose response (AID 687020); format: functional; details: Chlorocebus sabaeus
[2] = tested on: A549; assay: viability loss in A549 cells – cell-based, plate reader, cherry-pick samples, cytotoxicity control, dose response (AID 687028); format: functional; details: Homo sapiens
[3] = Counterscreen for inhibitors of Trypanosoma brucei methionyl tRNA synthetase (MetRS): Luminescence-based cell-based high throughput dose response assay to identify compounds that are cytotoxic to Jurkat human T lymphocyte cells.; format: functional
[4] = molecular target: T1, Methionyl-tRNA synthetase, putative (Trypanosoma brucei brucei, UniProt Q38C91); format: functional, Trypanosoma brucei brucei strain 927/4 GUTat10.1
T1 sequence (Q38C91 whole entry): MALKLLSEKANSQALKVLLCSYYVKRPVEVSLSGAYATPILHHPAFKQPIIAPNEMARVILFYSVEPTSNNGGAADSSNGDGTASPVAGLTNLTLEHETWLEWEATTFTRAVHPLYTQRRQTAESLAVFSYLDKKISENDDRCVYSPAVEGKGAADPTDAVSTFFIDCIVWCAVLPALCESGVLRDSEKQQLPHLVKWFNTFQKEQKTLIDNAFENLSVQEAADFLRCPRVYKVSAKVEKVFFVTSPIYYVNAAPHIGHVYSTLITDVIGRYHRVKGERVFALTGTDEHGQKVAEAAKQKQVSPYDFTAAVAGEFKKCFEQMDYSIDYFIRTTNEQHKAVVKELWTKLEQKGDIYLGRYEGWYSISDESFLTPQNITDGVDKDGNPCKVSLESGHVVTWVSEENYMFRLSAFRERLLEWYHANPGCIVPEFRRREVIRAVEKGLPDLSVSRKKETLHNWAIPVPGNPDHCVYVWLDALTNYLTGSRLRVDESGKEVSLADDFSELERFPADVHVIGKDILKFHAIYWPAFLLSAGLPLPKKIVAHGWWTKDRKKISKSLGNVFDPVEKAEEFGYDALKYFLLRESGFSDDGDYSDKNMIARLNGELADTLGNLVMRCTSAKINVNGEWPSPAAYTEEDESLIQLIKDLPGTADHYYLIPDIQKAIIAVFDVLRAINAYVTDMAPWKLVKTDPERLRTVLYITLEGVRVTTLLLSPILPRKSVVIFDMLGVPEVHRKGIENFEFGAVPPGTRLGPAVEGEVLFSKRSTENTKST

[5] = molecular target: T1, Methionyl-tRNA synthetase, putative; format: functional, Trypanosoma brucei brucei strain 927/4 GUTat10.1; remark: listed apart in the source
[6] = molecular target: T2, Histone-lysine N-methyltransferase NSD2 (Homo sapiens, UniProt O96028); format: biochemical
T2 sequence (O96028 whole entry): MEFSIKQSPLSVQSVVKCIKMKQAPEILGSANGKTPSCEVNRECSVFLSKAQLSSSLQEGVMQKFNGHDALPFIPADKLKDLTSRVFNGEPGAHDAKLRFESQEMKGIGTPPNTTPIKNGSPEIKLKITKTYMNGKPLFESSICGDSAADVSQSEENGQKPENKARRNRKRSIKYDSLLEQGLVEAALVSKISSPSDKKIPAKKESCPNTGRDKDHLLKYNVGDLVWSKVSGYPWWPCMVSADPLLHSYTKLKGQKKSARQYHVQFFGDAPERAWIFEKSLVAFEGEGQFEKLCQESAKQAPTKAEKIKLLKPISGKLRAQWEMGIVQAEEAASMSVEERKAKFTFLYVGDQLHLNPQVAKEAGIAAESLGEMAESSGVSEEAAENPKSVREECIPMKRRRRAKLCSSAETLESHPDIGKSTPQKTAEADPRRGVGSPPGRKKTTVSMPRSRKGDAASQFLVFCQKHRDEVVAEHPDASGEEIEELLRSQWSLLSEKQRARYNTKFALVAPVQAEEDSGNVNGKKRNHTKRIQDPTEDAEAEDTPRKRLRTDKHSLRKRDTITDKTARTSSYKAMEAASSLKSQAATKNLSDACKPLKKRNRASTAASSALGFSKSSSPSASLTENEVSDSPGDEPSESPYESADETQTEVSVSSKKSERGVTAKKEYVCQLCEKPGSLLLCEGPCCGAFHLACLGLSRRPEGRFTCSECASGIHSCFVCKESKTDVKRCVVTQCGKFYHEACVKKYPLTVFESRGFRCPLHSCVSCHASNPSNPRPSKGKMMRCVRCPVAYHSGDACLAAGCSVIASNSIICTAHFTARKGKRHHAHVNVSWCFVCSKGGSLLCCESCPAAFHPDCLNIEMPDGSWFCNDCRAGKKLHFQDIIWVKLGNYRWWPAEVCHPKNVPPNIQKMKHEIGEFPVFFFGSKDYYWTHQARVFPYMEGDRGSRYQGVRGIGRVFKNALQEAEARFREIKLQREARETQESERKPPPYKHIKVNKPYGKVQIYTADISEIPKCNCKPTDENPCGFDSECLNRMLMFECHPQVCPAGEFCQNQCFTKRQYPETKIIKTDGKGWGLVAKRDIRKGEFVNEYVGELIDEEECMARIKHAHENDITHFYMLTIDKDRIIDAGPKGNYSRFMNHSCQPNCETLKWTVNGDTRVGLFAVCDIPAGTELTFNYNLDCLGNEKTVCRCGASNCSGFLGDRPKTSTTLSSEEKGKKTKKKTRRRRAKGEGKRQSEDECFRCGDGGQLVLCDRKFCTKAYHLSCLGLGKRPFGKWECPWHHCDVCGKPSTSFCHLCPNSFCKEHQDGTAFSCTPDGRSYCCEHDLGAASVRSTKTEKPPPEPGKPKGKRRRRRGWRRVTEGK

[7] = molecular target: Nuclear receptor subfamily 0 group B member 1 (Homo sapiens, UniProt P51843); format: functional, cell-based;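 also: HEK293T cells transfected with SF-1 and DAX-1 plus StAR promoter luciferase reporter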
Nuclear receptor subfamily 0 group B member 1, sequence (P51843 whole entry): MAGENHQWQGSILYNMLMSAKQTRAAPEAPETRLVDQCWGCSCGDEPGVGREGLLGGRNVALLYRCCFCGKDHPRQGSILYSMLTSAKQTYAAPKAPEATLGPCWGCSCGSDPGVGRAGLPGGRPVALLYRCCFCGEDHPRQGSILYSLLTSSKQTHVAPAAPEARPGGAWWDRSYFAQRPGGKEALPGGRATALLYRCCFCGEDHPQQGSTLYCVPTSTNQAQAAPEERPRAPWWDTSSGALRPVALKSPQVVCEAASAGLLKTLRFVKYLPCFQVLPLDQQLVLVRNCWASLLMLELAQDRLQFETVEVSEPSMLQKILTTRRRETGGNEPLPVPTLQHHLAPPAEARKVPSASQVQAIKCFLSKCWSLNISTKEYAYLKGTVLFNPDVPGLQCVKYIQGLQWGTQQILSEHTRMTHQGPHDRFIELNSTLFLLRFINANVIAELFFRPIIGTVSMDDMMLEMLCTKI

[8] = cells; format: functional, cell-based
[9] = toxicity toward HepG2 liver cells – cell-based, plate reader, cherry-pick, antagonist series, cytotoxicity control, dose response (AID 743416); format: functional
[10] = blockade of melanocortin 4 receptor signaling – cell-based, plate reader, cherry pick, counter-screen for LGR2 antagonist project, dose response (AID 743444); format: functional;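 also: transfected HEK 293 cells stimulated with alpha-MSH peptide; potency of inhibitors of the alpha-MSH evoked signal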
[11] = blockers of bursicon-stimulated LGR2 cAMP reporter – cell-based, HEK293, CRE-luciferase reporter, cherry pick, set 2, dose response (AID 743343); format: functional;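 also: transfected cells were stimulated with diluted bursicon conditioned medium after compound addition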
[12] = molecular target: Paired box protein Pax-8 (Homo sapiens, UniProt Q06710); assay: PAX8 transcriptional activity inhibition in RMG-I – RMG-I cells, luciferase, cherry-pick, dose response (AID 687027); format: functional, cell-based;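 also: luciferase reporter driven by Pax8 target thyroperoxidase promoter measured by SteadyGlo luminescence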
Paired box protein Pax-8, sequence (Q06710 whole entry): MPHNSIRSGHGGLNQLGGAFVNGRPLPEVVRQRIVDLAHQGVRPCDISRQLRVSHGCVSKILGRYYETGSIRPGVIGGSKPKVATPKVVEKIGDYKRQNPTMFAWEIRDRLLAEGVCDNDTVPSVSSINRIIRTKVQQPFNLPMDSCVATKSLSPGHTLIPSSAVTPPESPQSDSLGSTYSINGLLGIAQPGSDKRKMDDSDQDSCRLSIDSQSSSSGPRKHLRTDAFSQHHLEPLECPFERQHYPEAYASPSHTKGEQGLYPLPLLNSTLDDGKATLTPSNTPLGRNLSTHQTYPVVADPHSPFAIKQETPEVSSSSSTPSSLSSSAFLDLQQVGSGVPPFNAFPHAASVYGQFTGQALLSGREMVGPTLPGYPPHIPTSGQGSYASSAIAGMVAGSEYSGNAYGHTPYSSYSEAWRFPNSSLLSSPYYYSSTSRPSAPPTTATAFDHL

[13] = A549 cell cytotoxicity, dose response, cytotoxicity control, plate reader, cherry-pick, antagonist series (AID 743412); format: functional, cell-based
[14] = general cell-killing toxicity readout – plate reader, dry powder samples, cytotoxicity control for PAX8 inhibitor project, dose response (AID 743021); format: functional, cell-based
[15] = viability loss in HEK293 cells – cell-based, plate reader, cherry-picked samples, cytotoxicity control, dose response (AID 743446); format: functional
[16] = IGROV1 cell killing – plate reader, dry powder samples, PAX8 inhibitor project, dose response (AID 743043); format: functional, cell-based; details: IGROV-1
[17] = OVCAR8 cell viability loss – plate reader, dry powder samples, PAX8 project, dose response (AID 743197); format: functional, cell-based; details: OVCAR-8
[18] = OVCAR-3 cell viability loss – plate reader, dry powder samples, PAX8 inhibitor project, dose response (AID 743044); format: functional, cell-based
[19] = general mammalian cell viability loss – activator set, cherry-pick, cytotoxicity control for miR-122 modulator project, dose response (AID 720690); format: functional, cell-based;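 also: HEK293T human cells scored for general mammalian cytotoxicity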
[20] = activation of miR-122 Renilla sensor silencing – cell-based, Huh7 psiCHECK-miR122, Renilla luciferase, cherry-picked, dose response (AID 651956); format: functional;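 also: huh7 hepatoma cells stably carrying a psiCHECK-2 miR-122 sensor plasmid; renilla luciferase signal reporting endogenous miR-122 activity after 48 h compound exposure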
[21] = molecular target: Beta-galactosidase (Escherichia coli, UniProt Q8VNN2); assay: Dose response counterscreen for EBI2 assay utilizing the enzyme, b-galactosidase.; format: functional
Beta-galactosidase, sequence (Q8VNN2 whole entry): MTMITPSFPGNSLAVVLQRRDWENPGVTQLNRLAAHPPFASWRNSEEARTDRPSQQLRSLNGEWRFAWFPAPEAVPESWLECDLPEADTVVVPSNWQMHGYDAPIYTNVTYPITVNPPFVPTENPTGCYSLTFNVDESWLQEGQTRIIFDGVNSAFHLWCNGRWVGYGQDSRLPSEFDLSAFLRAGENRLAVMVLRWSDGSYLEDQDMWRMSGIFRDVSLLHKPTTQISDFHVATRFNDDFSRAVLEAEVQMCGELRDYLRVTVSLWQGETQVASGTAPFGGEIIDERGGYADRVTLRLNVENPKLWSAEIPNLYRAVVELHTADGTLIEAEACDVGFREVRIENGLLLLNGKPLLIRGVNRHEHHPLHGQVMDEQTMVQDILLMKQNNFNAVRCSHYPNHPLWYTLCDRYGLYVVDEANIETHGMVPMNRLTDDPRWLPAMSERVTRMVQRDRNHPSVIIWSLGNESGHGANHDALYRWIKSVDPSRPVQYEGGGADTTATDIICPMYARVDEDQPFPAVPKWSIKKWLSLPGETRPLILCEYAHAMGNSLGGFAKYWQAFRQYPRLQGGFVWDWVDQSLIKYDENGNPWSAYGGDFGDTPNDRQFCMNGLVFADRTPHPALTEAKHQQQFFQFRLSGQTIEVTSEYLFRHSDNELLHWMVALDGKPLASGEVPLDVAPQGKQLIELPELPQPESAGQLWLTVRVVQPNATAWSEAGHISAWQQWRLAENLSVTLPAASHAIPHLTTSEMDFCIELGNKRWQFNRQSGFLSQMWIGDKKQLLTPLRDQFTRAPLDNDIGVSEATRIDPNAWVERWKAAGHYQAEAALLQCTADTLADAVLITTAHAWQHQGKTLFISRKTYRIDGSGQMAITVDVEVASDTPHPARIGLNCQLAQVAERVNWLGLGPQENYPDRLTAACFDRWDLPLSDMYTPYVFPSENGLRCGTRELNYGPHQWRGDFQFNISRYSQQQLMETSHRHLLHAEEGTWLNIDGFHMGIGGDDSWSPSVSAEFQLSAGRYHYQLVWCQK

[22] = viability loss in HepG2 hepatoma cells – cell-based, ATP luminescence, cherry-pick, activator set 2, cytotoxicity control, dose response (AID 1053143); format: functional
[23] = molecular target: T3, Rac GTPase-activating protein 1 (Homo sapiens, UniProt Q9H0H5); assay: blockers of MgcRacGAP-driven Rac1 GTP hydrolysis – biochemical, ADP Hunter fluorescence, primary and confirmatory, confirmation (AID 624330); format: functional
T3 sequence (Q9H0H5 whole entry): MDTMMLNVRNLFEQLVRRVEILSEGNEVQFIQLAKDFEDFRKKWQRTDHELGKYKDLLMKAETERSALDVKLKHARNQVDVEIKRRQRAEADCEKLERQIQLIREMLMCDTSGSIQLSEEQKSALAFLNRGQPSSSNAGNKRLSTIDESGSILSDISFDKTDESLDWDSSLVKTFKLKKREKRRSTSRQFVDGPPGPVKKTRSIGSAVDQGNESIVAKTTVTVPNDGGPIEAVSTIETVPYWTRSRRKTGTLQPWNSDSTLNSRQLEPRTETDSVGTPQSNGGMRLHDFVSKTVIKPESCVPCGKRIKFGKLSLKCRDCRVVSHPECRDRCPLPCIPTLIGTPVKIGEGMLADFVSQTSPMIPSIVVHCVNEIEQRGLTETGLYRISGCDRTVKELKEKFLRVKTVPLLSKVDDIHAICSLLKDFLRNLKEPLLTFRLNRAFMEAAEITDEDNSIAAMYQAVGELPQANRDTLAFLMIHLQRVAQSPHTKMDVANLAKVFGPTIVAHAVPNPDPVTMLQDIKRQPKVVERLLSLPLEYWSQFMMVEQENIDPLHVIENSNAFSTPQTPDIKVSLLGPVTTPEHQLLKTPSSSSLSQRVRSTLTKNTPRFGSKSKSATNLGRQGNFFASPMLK

[24] = viability loss in HeLa cells – cytotoxicity control for MgcRacGAP inhibitor project, dose response (AID 624300); format: functional
[25] = HIV-1 AD8 envelope cell-cell fusion blockers – cherry-pick, dose response (AID 652062); format: functional, cell-based;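 also: luciferase signal from cell-cell fusion driven by HIV-1 clade B AD8 Env; potency is for inhibitors of fusion seen as a drop in luminescence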
[26] = off-target signal loss in HeLa-CEM21 co-culture – HeLa F-luc CTL cells, cherry-picked, counter-screen for HIV-1 Env fusion inhibitor project, dose response (AID 652040); format: functional, cell-based;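 also: potency for signal decrease marking cytotoxic or nonspecific inhibition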
[27] = blockers of HIV-1 envelope-mediated cell-cell fusion – cherry-pick, dose response (AID 652057); format: functional, cell-based
[28] = blockers of HIV-1 ZM109 envelope-driven cell-cell fusion – HeLa effector, CEM target cells, luciferase, cherry-pick, dose response (AID 652058); format: functional, cell-based;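 also: luciferase signal from HIV-1 Env mediated cell-cell fusion of effector and target cells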
[29] = viability loss in CEM21 cells – cell-based, CellTiter-Glo luminescence, cherry-picked, cytotoxicity control for viral fusion inhibitor project, dose response (AID 652042); format: functional;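 also: potency for signal decrease meaning cytotoxicity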

CCC1CN(S(=O)(=O)c2ccc3c(c2)NC(=O)CC(=O)N3)c2cc(Cl)ccc2O1 (centres undefined)
AC50 [1]: 27.7 µM (active) | AC50 [2]: 28.5 µM (active)

CCN1C(=O)C(CC(=O)Nc2ccc(F)cc2)N(CCc2ccc(OC)cc2)C1=S (centres undefined)
IC50 [3]: 83.3 µM (inactive) | IC50 [4]: 13.2 µM (inactive) | IC50 [5]: 10.5 µM (inactive)

Cc1ccccc1-c1nnc2n1N=C(c1ccc(O)c(O)c1)CS2
AC50 [6]: > 20 µM (inactive) | IC50 [7]: > 67.6 µM (inactive) | IC50 [8]: > 67.6 µM (inactive)

COc1cccc(-c2c[nH]c(C(O)c3cc(Cl)cc(Cl)c3)n2)c1 (centres undefined)
IC50 [3]: 83.3 µM (inactive) | IC50 [4]: 10.3 µM (inactive) | IC50 [5]: 4.9 µM (active)

Oc1nc2ccccc2n1C1CCN(C(CCc2ccccc2)c2nnnn2-c2ccc3c(c2)OCCO3)CC1 (centres undefined)
AC50 [9]: 16.5 µM (active) | AC50 [10]: 2.86 µM (active) | AC50 [11]: 9.66 µM (active) | AC50 [12]: 1.54 µM (active) | AC50 [13]: 7.65 µM (active) | AC50 [14]: 10.8 µM (active) | AC50 [15]: 14.5 µM (active)

O=C(c1ccc(F)cc1)N1CC(=O)N2[C@@H](CO)[C@@H](c3ccc(C#Cc4ccc(F)cc4)cc3)[C@@H]2C1
AC50 [16]: 23 µM (active) | AC50 [17]: > 70 µM (inactive) | AC50 [12]: 9.4 µM (active) | AC50 [18]: 7.81 µM (active) | AC50 [14]: 2.16 µM (active)

COc1ccccc1NC(=O)N1CCCCN2[C@H](CO)[C@H](c3ccc(C#CC4CCCC4)cc3)[C@H]2C1
AC50 [19]: 12.6 µM (active) | AC50 [20]: 21.9 µM (active)

O/N=C/c1ccn(-c2ccc(Br)cc2)c1
IC50 [7]: > 67.5 µM (inactive) | IC50 [8]: > 67.5 µM (inactive)

O=C(COc1ccc(Cl)cc1)N1CCN(C/C=C/c2ccccc2)CC1
IC50 [21]: > 80 µM (inactive)

CN1CCN(Cc2cc(Cl)c3cccnc3c2OC(=O)c2cccs2)CC1
AC50 [22]: 26 µM (active)

CCOc1ccc(/C=N/NC(=O)NC23CC4CC(CC(C4)C2)C3)cc1O
IC50 [23]: 148 µM (active) | CC50 [24]: 100 µM (active)

S=C(NCCc1ccccc1)N1Cc2cc(N3CCCCC3)ccc2-n2nncc2C1
AC50 [25]: 9.73 µM (active) | AC50 [26]: 7.92 µM (active) | AC50 [27]: 5.34 µM (active) | AC50 [28]: 9.8 µM (active) | AC50 [29]: 60.7 µM (active)

CC1CCCN(CCOc2cccc(Oc3ccccc3)c2)C1 (centres undefined)
AC50 [1]: 2.31 µM (active) | AC50 [2]: 1.65 µM (active)

CN(C)C(=O)c1ccc(-c2cc3onc(-c4ccccc4)c3c(=O)n2C)cc1
AC50 [22]: 26 µM (active)
